{"source": "paper PMC8792998", "about": "(Journal of medicinal chemistry, 2021)", "key": {"[1]": {"test_system": "C. parvum", "experiment": "C. parvum-infected HCT-8 cell assay", "assay_type": "cell-based, Cryptosporidium parvum", "conditions": "for change of potency, in words: Cp HCT-8 assay, Table 1 linker SAR; for fold loss of potency: Cp HCT-8 EC50, Table 1 linker SAR, comparator not given"}, "[2]": {"biological_target": "T1, hERG (Homo sapiens, UniProt Q12809)", "T1 sequence (Q12809 whole entry)": "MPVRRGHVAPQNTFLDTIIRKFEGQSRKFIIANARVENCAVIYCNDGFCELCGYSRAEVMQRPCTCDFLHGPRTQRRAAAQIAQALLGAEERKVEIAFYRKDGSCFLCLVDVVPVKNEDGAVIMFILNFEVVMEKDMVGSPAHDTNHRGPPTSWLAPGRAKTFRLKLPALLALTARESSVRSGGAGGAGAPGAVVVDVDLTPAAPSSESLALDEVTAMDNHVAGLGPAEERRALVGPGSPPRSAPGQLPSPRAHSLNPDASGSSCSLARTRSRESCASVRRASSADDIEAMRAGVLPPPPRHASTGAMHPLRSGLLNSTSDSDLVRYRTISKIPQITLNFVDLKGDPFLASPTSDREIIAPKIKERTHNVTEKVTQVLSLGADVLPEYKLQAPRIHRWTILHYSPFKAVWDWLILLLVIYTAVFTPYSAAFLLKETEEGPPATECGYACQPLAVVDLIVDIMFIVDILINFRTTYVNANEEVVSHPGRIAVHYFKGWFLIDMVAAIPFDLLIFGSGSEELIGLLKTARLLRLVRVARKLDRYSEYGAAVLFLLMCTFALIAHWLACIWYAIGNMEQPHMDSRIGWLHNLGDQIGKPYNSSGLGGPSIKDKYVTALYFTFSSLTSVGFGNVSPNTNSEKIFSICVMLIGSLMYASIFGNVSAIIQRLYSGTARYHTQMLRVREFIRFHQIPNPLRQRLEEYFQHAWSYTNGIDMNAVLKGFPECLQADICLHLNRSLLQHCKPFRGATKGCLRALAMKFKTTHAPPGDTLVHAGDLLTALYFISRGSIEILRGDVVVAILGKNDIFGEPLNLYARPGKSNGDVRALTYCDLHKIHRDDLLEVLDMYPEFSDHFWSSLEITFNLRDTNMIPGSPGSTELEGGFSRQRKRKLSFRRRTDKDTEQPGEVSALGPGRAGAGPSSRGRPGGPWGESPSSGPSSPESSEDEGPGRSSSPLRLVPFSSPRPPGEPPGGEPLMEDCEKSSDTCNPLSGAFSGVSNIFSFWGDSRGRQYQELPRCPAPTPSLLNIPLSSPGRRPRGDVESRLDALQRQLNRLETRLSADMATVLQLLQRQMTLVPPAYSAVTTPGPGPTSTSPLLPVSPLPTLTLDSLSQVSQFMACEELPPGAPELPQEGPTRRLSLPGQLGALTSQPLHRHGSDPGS", "experiment": "hERG-CHO automated patch clamp electrophysiology", "assay_type": "cell-based"}, "[3]": {"test_system": "human Ether-a-go-go-Related Gene (hERG)", "conditions": "read-out: hERG IC50; reported value; cited from earlier work"}, "[4]": {"biological_target": "T1, hERG", "experiment": "hERG [3H]-dofetilide competitive binding assay", "conditions": "human, probe [3H]-dofetilide"}, "[5]": {"test_system": "C. parvum", "conditions": "previous work, cited from earlier work"}, "[6]": {"test_system": "C. parvum", "experiment": "C. parvum time-kill curve", "assay_type": "cell-based, Cryptosporidium parvum", "conditions": "for effect on parasite numbers in time-kill assay: compound added at multiples of EC90 24 hours after infection"}, "[7]": {"test_system": "C. parvum", "experiment": "NSG mouse model of C. parvum infection", "conditions": "50 mg/kg twice daily by oral gavage, days 7-10; fecal qPCR; n=4"}, "[8]": {"experiment": "Mouse PK study, plasma and jejunum", "assay_type": "in vivo, CD-1 mice", "conditions": "male, CD-1, mouse, iv, 1 mg/kg"}, "[9]": {"test_system": "CYP1A2, CYP2B6, CYP2C8, CYP2D6, CYP3A4", "experiment": "CYP inhibition panel at 10 μM, remaining isoforms", "assay_type": "in vitro ADME", "conditions": "human"}, "[10]": {"test_system": "HCT-8 cells", "experiment": "Host cell toxicity, CellTiter AQueous colorimetric assay", "assay_type": "cell-based, human"}, "[11]": {"biological_target": "human potassium channel hERG (Homo sapiens, UniProt Q12809)", "sequence (Q12809 whole entry)": "as above", "experiment": "hERG [3H]-dofetilide competitive binding assay", "conditions": "10 μM; inhibition of [3H]-dofetilide binding"}, "[12]": {"biological_target": "human p-glycoprotein (Pgp) multi-drug resistance (MDR) transporter (Homo sapiens, UniProt P08183)", "experiment": "MDR1 transporter assay", "assay_type": "in vitro ADME", "conditions": "10 μM, 2 hours"}}}
{"molecule": "O=C(c1ccc(Cl)c(Cl)c1)N1CCN(c2ccc3nncn3n2)CC1", "note": "[Compound 12b, 1-(3,4-dichlorobenzoyl)-4-{[1,2,4]triazolo[4,3-b]pyridazin-6-yl}piperazine]", "values": [{"measurement": "fold loss of potency relative to 12a", "setting": "[1]; Cp HCT-8 EC50", "result": "> 100", "unit": "fold"}]}
{"molecule": "O=C(Nc1ccc(Cl)cc1)N1CCN(c2ccc3nncn3n2)CC1", "note": "[Compound 1, reference compound]", "values": [{"measurement": "IC50", "setting": "[2]", "result": "~10", "unit": "µM"}, {"measurement": "hERG IC50 versus Cp EC90(free) ratio", "setting": "[2]; safety margin", "result": "~ 4 fold"}, {"measurement": "IC50", "setting": "[3]", "result": "~10", "unit": "µM"}]}
{"molecule": "O=S(=O)(Cc1ccc(Cl)c(Cl)c1)N1CCN(c2ccc3nncn3n2)CC1", "note": "[Compound 13, 1-[(3,4-dichlorophenyl)methanesulfonyl]-4-{[1,2,4]triazolo[4,3-b]pyridazin-6-yl}piperazine]", "values": [{"measurement": "change of potency, in words", "setting": "[1]", "result": "dramatic loss of potency"}]}
{"molecule": "O=C(Cc1ccc(Cl)c(Cl)c1)N1CCCN(c2ccc3nncn3n2)CC1", "note": "[Compound 12c, 2-(3,4-dichlorophenyl)-1-(4-{[1,2,4]triazolo[4,3-b]pyridazin-6-yl}-1,4-diazepan-1-yl)ethan-1-one]", "values": [{"measurement": "fold loss of potency", "setting": "[1]", "result": "> 50", "unit": "fold"}]}
{"molecule": "O=C(Cc1ccc(F)cc1)N1CCN(c2ccc3nncn3n2)CC1", "note": "[Compound 29h, 2-(4-fluorophenyl)-1-(4-{[1,2,4]triazolo[4,3-b]pyridazin-6-yl}piperazin-1-yl)ethan-1-one]", "values": [{"measurement": "fold more potent than H (entry 1, 29a)", "setting": "[1]; Cp HCT-8 EC50, Table 2", "result": 18, "unit": "fold"}]}
{"molecule": "O=C(Nc1ccc(Cl)c(Cl)c1)N1CCCN(c2ccc3nncn3n2)CC1", "note": "[Compound 10b, N-(3,4-dichlorophenyl)-4-{[1,2,4]triazolo[4,3-b]pyridazin-6-yl}-1,4-diazepane-1-carboxamide]", "values": [{"measurement": "fold loss of potency", "setting": "[1]", "result": "> 50", "unit": "fold"}]}
{"molecule": "O=C(Nc1ccc(Cl)c(Cl)c1)N1CCN(c2ccc3nncn3n2)CC1", "note": "[Compound 2, 4-([1,2,4]triazolo[4,3-b]pyridazin-6-yl)-N-(3,4-dichlorophenyl)piperazine-1-carboxamide]", "values": [{"measurement": "inhibition at 10 µM", "setting": "[4]", "result": "~50", "unit": "%"}, {"measurement": "fold more potent than MMV665917", "setting": "[5]", "result": "about 4 fold"}, {"measurement": "effect on parasite numbers in time-kill assay", "setting": "[6]", "result": "parasite numbers declined exponentially"}, {"measurement": "inhibition at 1 µM", "setting": "[2]; human, CHO cells that express hERG", "result": "> 40", "unit": "%"}]}
{"molecule": "O=C(Cc1cccc(Cl)c1)N1CCN(c2ccc3nncn3n2)CC1", "note": "[Compound 29j, 2-(3-chlorophenyl)-1-(4-{[1,2,4]triazolo[4,3-b]pyridazin-6-yl}piperazin-1-yl)ethan-1-one]", "values": [{"measurement": "fold less potent than chlorine in the 4-position", "setting": "[1]; Cp HCT-8 EC50, Table 2", "result": 4, "unit": "fold"}]}
{"molecule": "CC(=O)Oc1ccccc1C(=O)Nc1ncc([N+](=O)[O-])s1", "note": "[NTZ, nitazoxanide, reference compound]", "values": [{"measurement": "EC50", "setting": "[5]; read-out: EC50, parasite growth in vitro", "result": 3.8, "unit": "µM"}, {"measurement": "host cell cytotoxicity in time-kill assay", "setting": "[6]; HCT-8 cultures", "result": "cytotoxic at concentrations above the EC90"}, {"measurement": "effect on parasite numbers in time-kill assay", "setting": "[6]", "result": "blocked C. parvum growth without eliminating the parasite from HCT-8 cultures"}]}
{"molecule": "CC1CN(c2ccc3nncn3n2)CCN1C(=O)Cc1ccc(Cl)c(Cl)c1", "note": "(stereo not shown) [Compound 12d, 2-(3,4-dichlorophenyl)-1-(2-methyl-4-{[1,2,4]triazolo[4,3-b]pyridazin-6-yl}piperazin-1-yl)ethan-1-one]", "values": [{"measurement": "fold loss of potency", "setting": "[1]", "result": "> 50", "unit": "fold"}]}
{"molecule": "O=C(Cc1ccc(Cl)c(Cl)c1)N1CCN(c2ccc3nncn3n2)CC1", "note": "[Compound 12a, 2-(3,4-Dichlorophenyl)-1-(4-{[1,2,4]triazolo[4,3-b]pyridazin-6-yl}piperazin-1-yl)ethan-1-one]", "values": [{"measurement": "mice with no parasites detected ten days after completing treatment", "setting": "[7]", "result": "3 of 4 and three of the four"}, {"measurement": "time of exposure to eliminate 99.9% of parasites", "setting": "[6]; based on estimated decay rate, at six times the EC90", "result": "≤ 98", "unit": "h"}, {"measurement": "clearance", "setting": "[8]; jejunum", "result": 0.7, "unit": "mL/min/kg"}, {"measurement": "clearance at 6 h", "setting": "[8]; plasma", "result": 0.317, "unit": "mL/min/kg"}, {"measurement": "IC50", "setting": "[2]", "result": "~8", "unit": "µM"}, {"measurement": "hERG margin using EC50, not corrected for plasma protein binding", "setting": "[2]; safety margin", "result": "> 40", "unit": "fold"}, {"measurement": "inhibition at 10 µM", "setting": "[9]", "result": "≤ 10", "unit": "%"}, {"measurement": "cytotoxicity in HCT-8 cells, in words", "setting": "[10]", "result": "non-cytotoxic in HCT-8 cells"}]}
{"molecule": "N-(3,4-dichlorophenyl)-4-{[1,2,4]triazolo[4,3-b]pyridazin-6-yl}cyclohex-3-ene-1-carboxamide [Compound 18a]", "values": [{"measurement": "hERG binding, %inh", "setting": "[11]", "result": 56, "unit": "%"}, {"measurement": "change of potency, in words", "setting": "[1]", "result": "equipotent to its N-linked counterpart 2"}, {"measurement": "MDCK-MDR Efflux Ratio", "setting": "[12]", "result": 6.5}]}
{"molecule": "O=C(Cc1ccc(Cl)cc1)N1CCN(c2ccc3nncn3n2)CC1", "note": "[Compound 29i, 2-(4-chlorophenyl)-1-(4-{[1,2,4]triazolo[4,3-b]pyridazin-6-yl}piperazin-1-yl)ethan-1-one]", "values": [{"measurement": "fold more potent than H (entry 1, 29a)", "setting": "[1]; Cp HCT-8 EC50, Table 2", "result": 25, "unit": "fold"}]}
{"molecule": "CN(C(=O)N1CCN(c2ccc3nncn3n2)CC1)c1ccc(Cl)c(Cl)c1", "note": "[Compound 11, N-(3,4-dichlorophenyl)-N-methyl-4-{[1,2,4]triazolo[4,3-b]pyridazin-6-yl}piperazine-1-carboxamide]", "values": [{"measurement": "change of potency, in words", "setting": "[1]", "result": "dramatic loss of potency"}]}
{"molecule": "2-(3,4-dichlorophenyl)-1-(2-methyl-4-{[1,2,4]triazolo[4,3-b]pyridazin-6-yl}piperazin-1-yl)ethan-1-one [Compound 10c]", "values": [{"measurement": "fold loss of potency", "setting": "[1]", "result": "> 50", "unit": "fold"}]}
